Measurements from article PMC5970182, “Enabling STD-NMR fragment screening using stabilized native GPCR: A case study of adenosine receptor” (Scientific Reports, 2018).

Tests used:
[1] = system: Non-transfected HEK293 cells; test: cAMP assay in non-transfected HEK293 cells (negative control); assay type: cell-based, human; settings: high concentrations of CGS-21680; probably endogenous A2AR
A2AR StaR = system: A2AR StaR; parameters: method as in PMID 18664584, PMID 20624408; settings: cited from earlier work
A2AR = molecular target: T1, A2AR (Homo sapiens, UniProt P29274); test: STD-NMR binding and competition on purified native A2AR
T1 construct: Full length and wild type A2AR was expressed in yeast (Pichia pastoris) and Sf9; Strep-tag II (N); 8xHis (N); made in house; host or cells: Sf9 insect cells (baculovirus)

[2] = molecular target: the molecule itself; test: SEC-MALS; peak 1 of the gel filtration of affinity-purified A2AR; Phenomenex Yarra SEC 3000-3 column, 20 °C, 0.3 ml/min; DDM/CHS micelles; dn/dc protein 0.185 ml/g, detergent 0.1618 ml/g

For CCNC(=O)[C@H]1O[C@@H](n2cnc3c(N)nc(NCCc4ccc(CCC(=O)O)cc4)nc32)[C@H](O)[C@@H]1O [CGS-21680], the cAMP production [1] is listed as “small increase in cAMP production” and the “Binding of agonists to StaR preparation in comparison to the wild type protein” value (A2AR StaR) is listed as “not able to bind correctly”.

For CCNC(=O)[C@H]1O[C@@H](n2cnc3c(N)ncnc32)[C@H](O)[C@@H]1O [NECA], the “Binding of agonists to StaR preparation in comparison to the wild type protein” value (A2AR StaR) is listed as “not able to bind correctly”.

In the case of Cn1c(=O)c2c(ncn2C)n(C)c1=O [caffeine, reference compound], the STD binding signal (A2AR) is reported as “bound to A2AR” and the “STD binding signal in competition with ZM241385” value (A2AR) is reported as “binding signal of caffeine disappears”.

B1: Wild type, full length human adenosine A2A receptor (receptor, UniProt P29274 1-412, looked up)
chain: MPIMGSSVYITVELAIAVLAILGNVLVCWAVWLNSNLQNVTNYFVVSLAAADIAVGVLAIPFAITISTGFCAACHGCLFIACFVLVLTQSSIFSLLAIAIDRYIAIRIPLRYNGLVTGTRAKGIIAICWVLSFAIGLTPMLGWNNCGQPKEGKNHSQGCGEGQVACLFEDVVPMNYMVYFNFFACVLVPLLLMLGVYLRIFLAARRQLKQMESQPLPGERARSTLQKEVHAAKSLAIIVGLFALCWLPLHIINCFTFFCPDCSHAPLWLMYLAIVLSHTNSVVNPFIYAYRIREFRQTFRKIIRSHVLRQQEPFKAAGTSARVLAAHGSDGEQVSLRLNGHPPGVWANGSAPHPERRPNGYALGLVSGGSAQESQGNTGLPDVELLSHELKGVCPEPPGLDDPLAQDGAGVS
modifications: N-glycans attached (sites not given)
notes: adenosine A2A receptor, human, full length, wild type; Peak 2 of the gel filtration also holds a faster band consistent with a degradation product; also called native A2AR
With B1 the “stoichiometry N” value [2] was ~5.
